Where a name gives a salt, the structure may show the parent alone.
Assays:
[1] = test system: platelet aggregation induced by PAF in rabbit platelets; assay: Inhibition of platelet aggregation induced by PAF (Test 1); type: cell-based, male New Zealand albino rabbits; conditions: concentration needed to inhibit platelet aggregation by 50%, PAF 16 nM final, rabbit platelet rich plasma
Method: Test 1: Inhibition of Platelet Aggregation Induced by PAF.
The blood is obtained by cardiac puncture of male New Zealand albino rabbits (between 2 and 2.5 Kg of weight) and coagulation is prevented by adding 1 part of 3.16% sodium citrate dihydrate in 9 parts of blood. The platelet rich plasma (PRP) is prepared by blood centrifugation at 250 xg for 10 min. at 4° C. and it is diluted with platelet poor plasma (PPP) obtained by additional centrifugation at […] for 10 min. The amount of platelets is adjusted to […]. The platelet aggregation induced by PAF (C18, prepared in our laboratory) (16 nM, final) is determined by the Born nephelometric technique (J. Physiol., 1962, 162, 67) using a aggregometer Chronolog 500. The activities of the inhibitors are expressed as IC50, that is to say the concentration of the drug needed to inhibit the platelet aggregation in a 50%.

[2] = test system: hypotension induced by PAF; assay: Inhibition of the hypotensive effect induced by PAF in normotense rats (Test 2); type: in vivo, Male Sprague Dawley rats; conditions: i.v., 3 min before PAF (0.5 mg/Kg, i.v.), anesthetized rats
Method: Test 2--Inhibition of the Hypotensive Effect Induced by PAF in normotense Rats.
(§1) Male Sprague Dawley rats, of 180-220 g of weight, anesthetized with sodium pentobarbital (50 mg/Kg, i.p. 1 mL/100 g) have been used. In order to measure the average arterial pressure, a polyethylene catheter is introduced into the carotide artery. The arterial pressure is recorded with the help of a transducer connected with a R611 Beckman polygraph. The tested compounds are administrated through the femoral vein 3 min. Before the injection of PAF (0.5 mg/Kg, i.v.).

[3] = test system: hypotension induced by PAF; assay: Reversion of the hypotensive effect induced by PAF in normotense rats (Test 3); type: in vivo, Male Sprague Dawley rats; conditions: Rattus norvegicus, iv, 1 min; i.v., 1 min after the injection of PAF; read-out: ID50, dose required to reduce in a 50% the time of recovery of the basal blood pressure
Method: as §1
Test 3--Reversion of the Hypotensive Effect Induced by PAF in Normotense Rats
The experimental design is similar to that of test 2, except in that the compound to be tested is given by intravenous injection 1 min. After the injection of PAF. In the controls the blood pressure recovers 80% of the basal level 6.2 min. after the injection of PAF. The effect of the tested compounds is expressed as the dose required to reduce in a 50% the time of recovery of the basal blood pressure (ID50).

[4] = Oryctolagus cuniculus, Platelet

IC50 [1, 4] [µM] | Compound | % Inhibition of the hypotension induced by PAF ([2]; compound 5 mg/Kg) [%] | further results
7.8 | CCCCCCCCCCCCCCCCCC1OCC(COC(=O)CCCCC[N+](C)(C)C)O1 (racemic) [Compound 31, (±)-cis, trans-6-[(2-heptadecyl-1,3-dioxolane-4-yl)methoxy]-6-oxo-N,N,N-trimethyl-1-hexanaminium 4-methylbenzenesulfonate] | – | –
180 | CCCCCCCCCCCCCCCCCC1OCC(COP(=O)([O-])OCC[N+](C)(C)C)O1 (racemic) [Compound 47, (±)-cis, trans-2-[[[(2-heptadecyl-1,3-dioxolane-4-yl)methoxy]hydroxyphosphinyl]oxy]-N,N,N-trimethylethanaminium hydroxide, inner salt] | – | –
3.9 | CCCCCCCCCCCCCCCCCC1OCC(COCCCCCC[n+]2cccc3ccccc32)O1 (racemic) [Compound 11, (±)-cis, trans-1-[6-(2-heptadecyl-1,3-dioxolane-4-yl)methoxy]hexyl]quinolinium 4-methylbenzenesulfonate] | – | –
– | CCCCCCCCCCCCCCCCCC1OCC(COCCCC[n+]2ccsc2)O1 (racemic) [Compound 5, (±)-cis, trans-3-[4-[(2-heptadecyl-1,3-dioxolane-4-yl)methoxy]butyl)thiazolium iodide] | – | IC50 [1]: 5 µM
14 | CCCCCCCCCCCCCCCCCC1OCC(COCCCCCCCC[n+]2ccccc2)O1 (racemic) [Compound 20, (±)-cis, trans-1-[8-[(2-heptadecyl-1,3-dioxolane-4-yl)methoxy]octyl]pyridinium 4-methylbenzenesulfonate] | – | –
2.5 | CCCCCCCCCCCCCCCCCC1OCC(COC(=O)CCCCC[n+]2cscc2C)O1 (racemic) [Compound 26, (±)-cis, trans-3-[6-[(2-heptadecyl-1,3-dioxolane-4-yl)methoxy]-6-oxohexyl]-4-methylthiazolium 4-methylbenzenesulfonate] | – | –
2.5 | CCCCCCCCCCCCCCCCCC1OCC(COC(=O)CCCCC[n+]2cccc3ccccc32)O1 (racemic) [Compound 32, (±)-cis, trans-1-[6-[(2-heptadecyl-1,3-dioxolane-4-yl)methoxy]-6-oxohexyl]quinolinium 4-methylbenzenesulfonate] | 80 | –
1.3 | CCCCCCCCCCCCCCCCCC1OCC(COC(=O)CCCCC[n+]2ccsc2)O1 (racemic) [Compound 27, (±)-cis, trans-3-[6-[(2-heptadecyl-1,3-dioxolane-4-yl)methoxy]-6-oxohexyl]thiazolium 4-methylbenzenesulfonate] | 100 | ED50 [3]: 0.16 mg/kg; % Inhibition of the hypotension induced by PAF ([2]; compound 0.63 mg/Kg): 28%; % Inhibition of the hypotension induced by PAF ([2]; compound 1.25 mg/Kg): 75%
5.5 | CCCCCCCCCCCCCCCCCC1OCC(COCCCCCC[N+](C)(C)C)O1 (racemic) [Compound 10, (±)-cis, trans-6-[(2-heptadecyl-1,3-dioxolane-4-yl)methoxy]-N,N,N-trimethyl-1-hexanaminium 4-methylbenzenesulfonate] | – | –
6 | CCCCCCCCCCCCCCCCCC1OCC(COCCCC[n+]2ccsc2)O1 (racemic) [Compound 2, (±)-cis, trans-3-[4-[(2-heptadecyl-1,3-dioxolane-4-yl)methoxy]butyl]thiazolium 4-methylbenzenesulfonate] | – | –
3.1 | CCCCCCCCCCCCCCCCCC1OCC(COCCCCCC[n+]2cscc2C)O1 (racemic) [Compound 7, (±)-cis, trans-3-[6-[(2-heptadecyl-1,3-dioxolane-4-yl)methoxy]hexyl]-4-methylthiazolium 4-methylbenzenesulfonate] | – | –
18 | CCCCCCCCCCCCCCCCCC1OCC(COCCCCCC[N+]2(C)CCOCC2)O1 (racemic) [Compound 9, (±)-cis, trans-4-[6-[(2-heptadecyl-1,3-dioxolane-4-yl)methoxy]hexyl]-4-methylmorpholinium 4-methylbenzenesulfonate] | – | –
180 | CCCCCCCCCCCCCCCCCC1OCC(COP(=O)([O-])OCC[n+]2ccccc2)O1 (racemic) [Compound 48, (±)-cis, trans-1-[2-[[[(2-heptadecyl-1,3-dioxolane-4yl)methoxy]hydroxyphosphinyl]oxy]ethyl]pyridinium hydroxide, inner salt] | – | –
21 | CCCCCCCCCCCCCCCCCC1OCC(COC(=O)CCCCC[N+]2(C)CCOCC2)O1 (racemic) [Compound 30, (±)-cis, trans-4-[6-[(2-heptadecyl-1,3-dioxolane-4-yl)methoxy]-6-oxohexyl]-4-methylmorpholinium 4-methylbenzenesulfonate] | – | –
5.5 | CCCCCCCCCCCCCCCCCC1OCC(COCCCC[n+]2ccccc2)O1 (racemic) [Compound 1, (±)-cis, trans-1[4-[(2-heptadecyl-1,3-dioxolane-4-yl)methoxy]butyl]piridinium 4-methylbenzenesulphonate] | 24 | –
3.3 | CCCCCCCCCCCCCCCCCC1OCC(COCCCCCC[n+]2ccccc2)O1 (racemic) [Compound 6, (±)-cis, trans-1-[6-[(2-heptadecyl-1,3-dioxolane-4-yl)methoxy]hexyl]pyridinium 4-methylbenzenesulfonate] | 42 | –
2.6 | CCCCCCCCCCCCCCCCCC1OCC(COC(=O)CCCCC[n+]2ccccc2)O1 (racemic) [Compound 24, (±)-cis, trans-1-[6-[(2-heptadecyl-1,3-dioxolane-4-yl)methoxy]-6-oxohexyl]pyridinium 4-methylbenzenesulfonate] | 72 | % Inhibition of the hypotension induced by PAF ([2]; compound 2.5 mg/Kg): 58%
16 | CCCCCCCCCCCCCCCCCC1OCC(COCCCCCC[n+]2csc3ccccc32)O1 (racemic) [Compound 12, (±)-cis, trans-3-[6-[(2-heptadecyl-1,3-dioxolane-4-yl)methoxy]hexyl]benzothiazolium4-methylbenzenesulfonate] | – | –
1.4 | CCCCCCCCCCCCCCCCCC1OCC(COCCCCCC[n+]2ccsc2)O1 (racemic) [Compound 8, (±)-cis, trans-3-[6-[(2-heptadecyl-1,3-dioxolane-4-yl)methoxy]hexyl]thiazolium 4-methylbenzenesulfonate] | 88 | ED50 [3]: 0.3 mg/kg; % Inhibition of the hypotension induced by PAF ([2]; compound 1.25 mg/Kg): 46%; % Inhibition of the hypotension induced by PAF ([2]; compound 2.5 mg/Kg): 75%
5.1 | CCCCCCCCCCCCCCCCCC1OCC(COCCCCCCCC[n+]2ccsc2)O1 (racemic) [Compound 22, (±)-cis, trans-3-[8-[(2-heptadecyl-1,3-dioxolane-4-yl)methoxy]octyl]thiazolium 4-methylbenzenesulfonate] | – | –
